Here are results for ten compounds from patent US6376480B1, “Vitamin D derivatives with substituents at C-25, process for their production, intermediate products and use for the production of pharmaceutical agents” (Schering Aktiengesellschaft, priority 1995, dated 2002).

For data set [1], the system named is HL 60 cells. The experiment in a line: differentiation induction of HL 60 cells to macrophages (NBT reduction). The format is cell-based, human. Conditions: DR = test substance dose/calcitriol dose for comparable semi-maximum effects; 96 hours incubation. The procedure:
It is known in the literature (Mangelsdorf, D. J. et al., J. Cell. Biol. 98: 391-398 (1984)), that the treatment of human leukemia cells (promyelocyte cell line HL 60) in vitro with calcitriol induces the differentiation of cells to macrophages.
HL 60 cells are cultivated in tissue culture medium (RPMI 10% fetal calf serum) at 37° C. in an atmosphere of 5% CO2 in air.
For substance testing, the cells are centrifuged off, and 2.0×10^5 cells/ml in phenol red-free tissue culture medium is taken up. The test substances are dissolved in ethanol and diluted with tissue culture medium without phenol red to the desired concentration. The dilution stages are mixed with the cell suspension at a ratio of 1:10, and 100 μl each of this cell suspension that is mixed with substance is pipetted into an indentation of a 96-hole plate. For control, a cell suspension is mixed analogously with the solvent.
After incubation for 96 hours at 37° C. in 5% CO2 in air, 100 μl of an NBT-TPA solution (nitro blue tetrazolium (NBT), final concentration in the batch of 1 mg/ml, tetradecanoyl phorbolmyristate-13-acetate (TPA), final concentration in the batch of 2×10^−7 mol/l) is pipetted into each indentation of the 96-hole plate in the cell suspension.
By incubation for 2 hours at 37° C. and 5% CO2 in air, NBT is reduced to insoluble formazan because of the intracellular oxygen radical release, stimulated by TPA, in the cells that are differentiated to macrophages.
To complete the reaction, the indentations of the 96-hole plate are suctioned off, and the cells are affixed to the bottom of the plate by adding methanol and dried after affixing. To dissolve the intracellular formazan crystals that are formed, 100 μl of potassium hydroxide (2 mol/l) and 100 μl of dimethyl sulfoxide are pipetted into-each indentation and ultrasonically treated for 1 minute. The concentration of formazan is measured by spectrophotometry at 650 nm.
As a yardstick for the differentiation induction of HL 60 cells to macrophages, the concentration of formed formazan applies.

The next data set deals with healthy male rats. The experiment in a line: acute hypercalcemic action after one-time subcutaneous administration. Conditions: DR = test substance dose/calcitriol dose for comparable effects, serum-calcium. In kind it is in vivo, rat. The procedure:
To determine the acute hypercalcemic action of various calcitriol derivatives, the test that is described below is carried out:
The action of control (solution base), reference substance (1,25(OH)2—D3=calcitriol) and test substance is tested in each case after one-time subcutaneous administration in groups of 10 healthy male rats (140-170 g). During the testing time, the rats are kept in special cages to determine the excretion of water and mineral substances. Urine is collected in 2 fractions (0-16 hours and 16-22 hours). An oral dose of calcium (0.1 mmol of calcium in 6.5% alpha-hydroxypropylcellulose, 5 ml/animal) replaces at 1600 hours the calcium intake that is lacking by food deprivation. At the end of the test, the animals are killed by decapitation and exsanguinated to determine the serum-calcium values. For the primary screen test in vivo, an individual standard dose (200 μg/kg) is tested. For selected substances, the result is supported by establishing a dose-effect relation.
A hypercalcemic action is shown in serum-calcium level values that are higher than in the control.
The significance of differences between substance groups and controls and between test substance and reference substance are supported with suitable statistical processes.

In a further data set the target is T1, calcitriol receptor (Sus scrofa, UniProt A3RGC1).
T1 sequence (A3RGC1 1-427): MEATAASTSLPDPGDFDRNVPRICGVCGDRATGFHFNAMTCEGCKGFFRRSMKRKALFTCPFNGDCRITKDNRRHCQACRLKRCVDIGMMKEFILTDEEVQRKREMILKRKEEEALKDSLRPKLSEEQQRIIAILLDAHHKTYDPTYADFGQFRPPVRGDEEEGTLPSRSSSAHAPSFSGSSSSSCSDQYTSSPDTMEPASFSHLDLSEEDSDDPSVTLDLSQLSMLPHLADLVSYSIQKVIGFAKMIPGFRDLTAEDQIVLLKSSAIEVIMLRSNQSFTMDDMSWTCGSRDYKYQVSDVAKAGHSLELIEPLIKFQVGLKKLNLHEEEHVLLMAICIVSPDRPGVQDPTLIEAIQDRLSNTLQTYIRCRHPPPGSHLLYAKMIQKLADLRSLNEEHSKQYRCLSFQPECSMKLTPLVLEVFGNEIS
Description: calcitriol-receptor test (competition with 3H-calcitriol). The note with it: quotient of concentrations of test substance and calcitriol for 50% competition, receptor protein from intestines of juvenile pigs.

The subject of data set [2] is HL 60 cells. The experiment in a line: antagonism of the action of calcitriol in HL 60 cells. In kind it is cell-based, human.

Description for calcitriol receptor: The vitamin D activity of the substances according to the invention is determined with the aid of the calcitriol-receptor test. It is carried out with use of a specific receptor protein from the intestines of juvenile pigs.
Then, the samples are centrifuged at 10,000×g for 5 minutes at 4° C. The supernatant is decanted and measured in a β-counter after 1 hour of equilibration in Picofluor 15™.
The competition curves that are obtained with various concentrations of test substance as well as of reference substance (unlabeled calcitriol) at constant concentration of the reference substance (^3H-calcitriol) are placed in relation to one another and a competition factor (KF) is determined.
It is defined as a quotient of the concentrations of the respective test substance and the reference substance, which are necessary for 50% competition: [formula]

On to `C=C1/C(=C\C=C2/CCC[C@]3(C)[C@@H]([C@H](C)CCCC(C)(C)O)CC[C@@H]23)C[C@@H](O)C[C@@H]1O` [Calcitriol, 1α,25-dihydroxy vitamin D3, reference compound], for which the “Dose Ratio for Differentiation Induction in HL 60 Cells” value in the data set with HL 60 cells [1] amounted to 1. Further, the “dose ratio for hypercalcemia” value in the data set on healthy male rats was 1.
On to `C=C1C(=CC=C2CCCC3(C)C2CCC3C(C)C=CC(O)C2(C(C)=O)CC2)CC(O)CC1O` [Compound 7b, (5Z,7E,22E)-(1S,3R,24R)-25-Acetyl-26,27-cyclo-9,10-secocholesta-5,7,10(19),22-tetraene-1,3,24-triol], for which, on calcitriol receptor, the “Competition Factor KF for Receptor Bonding” value (shortened to “Competition Factor KF”) was determined as 1. Besides, in the data set on HL 60 cells [1], the “Dose Ratio for Differentiation Induction in HL 60 Cells” value was 0.5. For the same compound, the “dose ratio for hypercalcemia” value with healthy male rats is 300.
For `C=C1/C(=C\C=C2/CCC[C@]3(C)[C@@H]([C@H](C)/C=C/[C@@H](O)C4(C(=O)CCC)CC4)CC[C@@H]23)C[C@@H](O)C[C@@H]1O` [Compound 8b, (5Z,7E,22E)-(1S,3R,24R)-25-(1-oxobutyl)-26,27-cyclo-9,10-secocholesta-5,7,10(19),22-tetraene-1,3,24-triol], the “Competition Factor KF” value at calcitriol receptor was 2. In addition, the “Dose Ratio for Differentiation Induction in HL 60 Cells” value in the data set on HL 60 cells [1] is given as 0.9. Moreover, in the data set on healthy male rats, the “dose ratio for hypercalcemia” value is 100.
On the same counts, the results for `C=C1/C(=C\C=C2/CCC[C@]3(C)[C@@H]([C@H](C)/C=C/[C@@H](O)C4(C(=O)C(C)(C)C)CC4)CC[C@@H]23)C[C@@H](O)C[C@@H]1O` [Compound 15b, (5Z,7E,22E)-(1S,3R,24R)-25-(2,2-Dimethyl-1-oxopropyl)-26,27-cyclo-9,10-secocholesta-5,7,10(19),22-tetraene-1,3,24-triol] are 6, 1.1 and 300.
As to `C=C1/C(=C\C=C2/CCC[C@]3(C)[C@@H]([C@H](C)/C=C/[C@@H](O)C4(C(=O)C#CCCC)CC4)CC[C@@H]23)C[C@@H](O)C[C@@H]1O` [Compound 19b, (5Z,7E,22E)-(1S,3R,24R)-25-(1-Oxo-2-hexinyl)-26,27-cyclo-9,10-secocholesta-5,7,10(19),22-tetraene-1,3,24-triol], on calcitriol receptor, the “Competition Factor KF” value is 2. Also, the “Dose Ratio for Differentiation Induction in HL 60 Cells” value with HL 60 cells [1] is on record as 1.5. The “dose ratio for hypercalcemia” value in the data set on healthy male rats is on record as over 300.
With `C=C1/C(=C\C=C2/CCC[C@]3(C)[C@@H](C(C)(C)/C=C/[C@@H](O)C4(C(=O)CCCCCCC)CC4)CC[C@@H]23)C[C@@H](O)C[C@@H]1O` [Compound 43b, (5Z,7E,22E)-(1S,3R,24R)-20-methyl-25-(1-oxooctyl)-26,27-cyclo-9,10-secocholesta-5,7,10(19),22-tetraene-1,3,24-triol], on calcitriol receptor, the “Competition Factor KF” value was found to be 33. Besides, the “antagonism of the action of calcitriol in HL 60 cells” value with HL 60 cells [2] was “antagonize the action of calcitriol”. The “Dose Ratio for Differentiation Induction in HL 60 Cells” value in the data set with HL 60 cells [1] is over 1000.
In the same order, the values of `CCCCC(=O)C1([C@H](O)/C=C/[C@@H](C)[C@H]2CC[C@H]3/C(=C/C=C4C[C@@H](O)C[C@H](O)C4)CCC[C@]23C)CC1` [Compound 58b, (7E,22E)-(1R,3R,24R)-25-(1-Oxopentyl)-26,27-cyclo-19-nor-9,10-secocholesta-5,7,22-triene-1,3,24-triol] are 3, “antagonize the action of calcitriol” and 160.
With `CCCCCC(=O)C1([C@H](O)/C=C/[C@@H](C)[C@H]2CC[C@H]3/C(=C/C=C4C[C@@H](O)C[C@H](O)C4)CCC[C@]23C)CC1` [Compound 61b, (7E,22E)-(1R,3R,24R)-25-(1-Oxohexyl)-26,27-cyclo-19-nor-9,10-secocholesta-5,7,22-triene-1,3,24-triol], the “Competition Factor KF” value on calcitriol receptor came to 3. The “antagonism of the action of calcitriol in HL 60 cells” value in the data set on HL 60 cells [2] is “antagonize the action of calcitriol”. Also, the “Dose Ratio for Differentiation Induction in HL 60 Cells” value with HL 60 cells [1] is recorded as over 1000.
In the same order, the values of `CCCCCCC(=O)C1([C@@H](O)/C=C/[C@@H](C)[C@H]2CC[C@H]3/C(=C/C=C4C[C@@H](O)C[C@H](O)C4)CCC[C@]23C)CC1` [Compound 64a, (7E,22E)-(1R,3R,24S)-25-(1-Oxoheptyl)-26,27-cyclo-19-nor-9,10-secocholesta-5,7,22-triene-1,3,24-triol] are 3.5, “antagonize the action of calcitriol” and 120.
In the same order, the values of `CCCCCC(=O)C1([C@H](O)/C=C/C(C)(C)[C@H]2CC[C@H]3/C(=C/C=C4C[C@@H](O)C[C@H](O)C4)CCC[C@]23C)CC1` [Compound 87b, (7E,22E)-(1R,3R,24R)-20-methyl-25-(1-oxohexyl)-26,27-cyclo-19-nor-9,10-secocholesta-5,7,22-triene-1,3,24-triol] are 3, “antagonize the action of calcitriol” and 116.
